One series has as its system EpiDerm skin model. As to the kind of experiment: viability assay (MTT) in EpiDerm skin model. The series is classed as cell-based. The conditions noted are these: peptide at 500 μM and 2 mM, relative to PBS control. The method, then: The sample containers were transferred to 6 well plates that contained fresh media. All peptides were dissolved in PBS at a final concentration of 10 mM, and 100 μL each peptide solution was pipetted onto the surface of the Epiderm sample container. Incubation was continued for 12 hours at 37° C., 5% CO2. After the incubation period, the sample containers were washed three times with PBS and the sample containers were transferred to a 24 well plate that contained 300 μL of MTT assay media per well (MTT concentration was 1 mg/mL). The colorimetric assay was allowed to develop for three hours (incubation at 37° C., 5% CO2). Sample containers were then transferred to a 24 well culture plate that contained 2 mL of isopropanol per well. Extraction of the colored precipitate occurred over a period of four hours at room temperature. Absorbance readings were taken at 570 nm and 650 nm for each sample. The percent viability of each sample relative to a PBS control was calculated as: 100×(OD570^sam−OD650^sam)/(OD570^con−OD650^con) (6) Routinely, the peptide sample was assayed in triplicate. Results

The subject of series [1] is normal human dermal fibroblasts (NHDF). In words: NHDF migration assay, 48-well chemotaxis chamber. It counts as cell-based. The conditions noted are these: for induction of NHDF migration: concentrations ranging from 1000 μg/mL to 10 ng/mL (data not shown). Here is the method:
Normal, human dermal fibroblasts (NHDF) were obtained from Biowhittaker, (Walkersville, Md.) and propagated in T75 flasks in FBM media (500 mL, Biowhittaker) containing insulin, hFGF-b, GA-1000, and fetal bovine serum (10 mL) for up to 12 passages. For the migration assay, NHDF were washed once with 10 mL of Hank's buffered saline solution (HBSS). Three milliliters of trypsin (0.25%) in EDTA were added to the T75 flask for no more than five minutes to remove NHDF from the flask. NHDF in trypsin solution were added to 7 mL of FBM with no supplements added. NHDF were centrifuged for 5 minutes, and the supernatant was removed. NHDF were resuspended in 10 mL of FBM for counting. NHDF were centrifuged for another 5 minutes, and the supernatant was removed. NHDF were resuspended at 1×10^6 cells per mL in FBM without supplements. It was important to use FBM media only in migration assays because the complete media contains fibroblast growth factor and serum, both of which will trigger migration of fibroblasts.
Peptides were synthesized and purified by the Microchemical Facility at Emory University or by SigmaGenesis. All peptides were analyzed by mass spectrometry after HPLC to assess purity. Approximately 0.5–2.0 milligrams of peptide were used to make fresh stock solutions (5 mg/mL in PBS) for each migration assay. The peptide stock solutions in PBS were used to make more dilute solutions (1 mg/mL, 100 μg/mL, 10 μg/mL, 1 μg/mL, 100 ng/mL, 10 ng/mL) in FBM (without supplements) for the migration assays.
Polyvinylpyrrolidone-free polycarbonate membranes with […] pores (Neuroprobe, Inc., Gaithersburg, Md.) were washed with 90% ethanol for 15 minutes and rinsed four times with deionized water. Membranes were then placed into a glass dish containing an aqueous solution of 5 μg/mL gelatin. The glass dish was placed in to a water bath at about 90° C. for one hour. Membranes were removed from the gelatin solution and were allowed to dry for one hour in the 37° C. incubator.
A 48-well chemotaxis chamber (Neuroprobe, Inc., Gaithersburg, Md.) (see FIG. 20) was used for the migration assays. Twenty-eight μL of each test solution were added to the bottom wells of the chamber in quadruplicate. A gelatin-treated membrane was placed carefully on top of the bottom wells. The gasket and top part of chamber were then placed carefully on top of the membrane. The apparatus was tightened using six thumbscrews. A solution of NHDF containing an estimated cell density (2×10^5 cells per mL) was made by adding 320 μL of the 1×10^6 cells per mL solution to 1.28 mL of FBM (no supplements). Fifty microliters of the 2×10^5 cells per mL NHDF solution were added to the top part of each well in the chamber. The chamber was placed in the incubator at 37° C./5% CO2 for three hours. The chamber was removed, the thumbscrews were removed, and the chamber was turned upside down on a paper towel. […] The membrane was carefully removed. […] The membrane was fixed with methanol and stained using the Diff-Quik Staining Solutions I and II. The nuclei of NHDF are stained purple. The membrane was mounted on a glass slide using cedarwood immersion oil and a cover slip. […] The average number of migrated NHDF in the negative control was subtracted from the experimental (peptide) data and positive control data.

For the next series, the system named is neutrophils. In words: neutrophil migration assay, transwell plate. The series is classed as cell-based, human. The conditions noted are these: 10 nM, positive control. Here is the method: Peptides were synthesized and purified by the Microchemical Facility at Emory University or by SigmaGenesis. All peptides were analyzed by mass spectrometry after HPLC to assess purity. Approximately 0.5–2.0 milligrams of peptide were used to make fresh stock solutions (5 mg/mL in HBSS/HSA) for each migration assay. The peptide stock solutions were used to make more dilute solutions (1 mg/mL, 100 μg/mL, 10 μg/mL, 1 μg/mL, 100 ng/mL, and 10 ng/mL) in HBSS/HSA for the assays.
Neutrophils were isolated from human blood (collected in Vacutainer™ tubes containing EDTA) by layering the blood/EDTA mixture (about 20 mL) on top of two layers of Histopaque™ 1119 (bottom layer, 18 mL) and 1077 (top layer, 7 mL) in 50 mL Falcon tubes. The tubes were centrifuged at 1800 rpm for 30 minutes (no brake). Four layers appeared in the tubes after the spin (from top to bottom layers): plasma, 1077, 1119, and red blood cells. The buffy coat between the plasma and 1077 layers contained lymphocytes, monocytes, and some platelets. The plasma layer, the buffy coat, and most of the 1077 layer was removed and discarded. The 1119 layer that contained the neutrophils was removed and was placed into a clean 50 mL tube. Dulbecco's Phosphate Buffered Saline (DPBS) was added to bring the volume to 50 mL. The cells were centrifuged for 15 minutes at 2100 rpm. The cells were resuspended in 10 mL of DPBS, transferred to 15 mL tubes, and centrifuged again for 10 minutes at 2000 rpm. This process was repeated to wash the cells a second time. After the supernatant was removed, the red blood cells were lysed by adding 6 mL of cold sterile water to each 15 mL of supernatant. Cells were mixed in the water for only 30 seconds. Six mL of cold 2% sterile saline was then added. Cells were centrifuged again for 10 minutes at 2000 rpm. The red supernatant (containing hemoglobin from red blood cells) was removed. This process of red blood cell lysis was repeated two more times to remove all of the red blood cells. After most of the red blood cells were removed, neutrophils were resuspended in 10 mL of HBSS/HSA for counting with trypan blue.
A neutrophil migration assay was performed in duplicate using a 24-well transwell plate (3 μm pore size for membrane). Transwell membranes were pre-moistened with 20–40 μL of HBSS/HSA (0.04–0.4%). Chemotactic solutions (500 μL) were added to the bottom of each well. […] Transwells were then placed into the chemotactic solutions. The plate was placed into the incubator (37° C., 5% CO2) for one hour. Cells that migrated through the membrane were counted using trypan blue.
In the neutrophil migration experiments, neutrophils that were isolated were approximately 95% viable. […]

“Also recorded” adds a separate entry of the source. Residues, ends and D or L forms follow the SMILES beside them.

`CC(C)[C@H](NC(=O)[C@H](CC(=O)O)NC(=O)[C@@H]1CCCN1C(=O)[C@H](CC(N)=O)NC(=O)CNC(=O)[C@H](CS)NC(=O)[C@H](CCCNC(=N)N)NC(=O)[C@@H]1CCCN1)C(=O)N[C@@H](C)C(=O)O` [Peptide 9-mer] (H-PRCGNPDVA-OH; N-terminus and C-terminus assumed) had a total average viability in the series on EpiDerm skin model of 95.8%. Further, the “NHDF migration, percent of the plasma fibronectin positive control” value turned out to be 16±10% in series [1] (100 μg/mL peptide) and 32±2% in series [1] (1000 μg/mL peptide).

With `N=C(N)NCCC[C@H](NC(=O)[C@@H]1CCCN1C(=O)[C@H](Cc1ccccc1)NC(=O)[C@H](Cc1ccccc1)NC(=O)[C@H](CC(N)=O)NC(=O)[C@H](Cc1ccc(O)cc1)NC(=O)[C@@H](N)CC(N)=O)C(=O)N[C@@H](CCCCN)C(=O)N1CCC[C@H]1C(=O)N[C@@H](CCCCN)C(=O)O` [Peptide 10-mer] (H-NYNFFPRKPK-OH; N-terminus and C-terminus assumed), the total average viability with EpiDerm skin model is listed as 89.6%. In addition, the “NHDF migration, percent of the plasma fibronectin positive control” value worked out at 11±0% in series [1] (100 μg/mL peptide) and 30±2% in series [1] (1000 μg/mL peptide).

As to “IL-8: positive control for neutrophil migration, 10 nM [reference compound]”, in the series with neutrophils (0.04% HSA), the “Percent Neutrophil Migration exp. 2” value is 51%. Besides, the “Percent Neutrophil Migration exp. 1” value in the series with neutrophils (0.4% HSA) came to 81%.

Regarding “TLKAMRKPRCGNPDVAN (listed as Homo sapiens) [Peptide 17-mer]”, in series [1], the “induction of NHDF migration” value is given as “not chemotactic to NHDF at any concentration; also recorded: did not induce NHDF migration; also recorded: no effect on fibroblast mobility”.

Regarding “TMRKPRCGNPDVAN (listed as Homo sapiens) [Peptide 14-mer]”, the “induction of NHDF migration” value in series [1] is recorded as “not chemotactic to NHDF at any concentration; also recorded: did not induce NHDF migration; also recorded: no effect on fibroblast mobility”.

(Values after patent publication US7148194B2, “Method to increase fibronectin” (Kimberly-Clark Worldwide, Inc., priority 2002, dated 2006).)
